From patent US11684616B2, “Azalactam compounds as HPK1 inhibitors” (PFIZER INC., priority 2020, dated 2023)

Assays:
[1] = target: human full-length autophosphorylated recombinant HPK1 (Homo sapiens (Human), UniProt Q92918); experiment: HPK1 biochemical enzyme assay (chelation-enhanced fluorescence, CHEF); conditions: 0.5 nM HPK1, 45 μM ATP, Morrison fit
How it was run: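 Autophosphorylated full-length human HPK1 from Sf21 cells, His-tag removed by TEV, residual N-terminal Gly-Ser. Activity measured with a C-Sox fluorescent peptide substrate (CHEF); initial velocities followed at λex 360/λem 500 nm, 30 °C for 15 min.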

[2] = system: Phospho-SLP-76 (Ser376) in Jurkat cells; experiment: Phospho-SLP-76 (Ser376) HTRF assay in anti-CD3 stimulated Jurkat cells; assay type: cell-based; conditions: Homo sapiens, Jurkat, 30 min pre-treatment, anti-CD3 stimulation 15 min, read-out: pSLP76 IC50
How it was run: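 Jurkat cells pre-treated 30 min with compound (11-point 3-fold series, final 10 μM to 0.1 nM, 0.1% DMSO), then stimulated 15 min at 37° C with 200 μg/mL F(ab)2-complexed anti-CD3 (UCTH1). Lysate phospho-SLP-76 read by HTRF sandwich after overnight RT incubation; IC50 from four-parameter fit.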

[3] = target: Human recombinant full-length GST-tagged PRKD2 (PKD2) (Homo sapiens (Human), UniProt Q9BZL6); experiment: Biochemical selectivity kinase assay (Z'-LYTE FRET), PRKD2; conditions: for IC50: 25 μM ATP (~Km); for PRKD2 IC50/HPK1 Ki: ratio of the PRKD2 IC50 to the HPK1 Ki
Sequence of Human recombinant full-length GST-tagged PRKD2 (PKD2) (Q9BZL6 whole entry): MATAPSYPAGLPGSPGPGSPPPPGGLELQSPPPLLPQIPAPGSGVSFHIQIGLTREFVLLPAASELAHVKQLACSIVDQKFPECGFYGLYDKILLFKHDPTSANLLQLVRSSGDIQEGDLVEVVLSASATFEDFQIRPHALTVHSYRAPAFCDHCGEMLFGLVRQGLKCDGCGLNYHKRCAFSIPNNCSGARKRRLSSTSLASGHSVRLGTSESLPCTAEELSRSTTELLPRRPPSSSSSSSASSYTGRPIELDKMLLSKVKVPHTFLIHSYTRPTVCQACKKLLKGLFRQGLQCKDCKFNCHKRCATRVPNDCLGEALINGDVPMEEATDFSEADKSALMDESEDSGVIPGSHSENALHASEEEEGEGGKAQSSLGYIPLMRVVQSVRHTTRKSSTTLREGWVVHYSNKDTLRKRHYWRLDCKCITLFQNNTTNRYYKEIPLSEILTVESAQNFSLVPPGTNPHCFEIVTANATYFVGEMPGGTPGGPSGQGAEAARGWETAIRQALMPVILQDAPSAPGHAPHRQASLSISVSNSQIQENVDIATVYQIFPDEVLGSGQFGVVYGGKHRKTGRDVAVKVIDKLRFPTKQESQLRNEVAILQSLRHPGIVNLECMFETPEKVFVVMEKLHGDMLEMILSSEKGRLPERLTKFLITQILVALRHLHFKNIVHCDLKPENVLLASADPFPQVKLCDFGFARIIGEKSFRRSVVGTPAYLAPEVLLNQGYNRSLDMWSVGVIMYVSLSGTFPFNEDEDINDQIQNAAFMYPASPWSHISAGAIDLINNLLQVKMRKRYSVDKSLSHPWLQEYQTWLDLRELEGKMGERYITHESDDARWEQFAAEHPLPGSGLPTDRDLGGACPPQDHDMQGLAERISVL
Source text: (§1) Biochemical Selectivity Kinase Assay.
(§2) The dose response curve was curve fit to model number 205 (sigmoidal dose-response model). A ratio of the PRKD2 IC50 to the HPK1 Ki and a ratio of the RSK3 IC50 to the HPK1 Ki, is provided in the respective columns adjacent to the columns for PRKD2 IC50 and RSK3 IC50.

[4] = target: Human recombinant full-length GST-tagged RPS6KA2 (RSK3) (Homo sapiens (Human), UniProt Q15349); experiment: Biochemical selectivity kinase assay (Z'-LYTE FRET), RSK3; conditions: for IC50: 10 μM ATP (~Km); for RSK3 IC50/HPK1 Ki: ratio of the RSK3 IC50 to the HPK1 Ki
Sequence of Human recombinant full-length GST-tagged RPS6KA2 (RSK3) (Q15349 whole entry): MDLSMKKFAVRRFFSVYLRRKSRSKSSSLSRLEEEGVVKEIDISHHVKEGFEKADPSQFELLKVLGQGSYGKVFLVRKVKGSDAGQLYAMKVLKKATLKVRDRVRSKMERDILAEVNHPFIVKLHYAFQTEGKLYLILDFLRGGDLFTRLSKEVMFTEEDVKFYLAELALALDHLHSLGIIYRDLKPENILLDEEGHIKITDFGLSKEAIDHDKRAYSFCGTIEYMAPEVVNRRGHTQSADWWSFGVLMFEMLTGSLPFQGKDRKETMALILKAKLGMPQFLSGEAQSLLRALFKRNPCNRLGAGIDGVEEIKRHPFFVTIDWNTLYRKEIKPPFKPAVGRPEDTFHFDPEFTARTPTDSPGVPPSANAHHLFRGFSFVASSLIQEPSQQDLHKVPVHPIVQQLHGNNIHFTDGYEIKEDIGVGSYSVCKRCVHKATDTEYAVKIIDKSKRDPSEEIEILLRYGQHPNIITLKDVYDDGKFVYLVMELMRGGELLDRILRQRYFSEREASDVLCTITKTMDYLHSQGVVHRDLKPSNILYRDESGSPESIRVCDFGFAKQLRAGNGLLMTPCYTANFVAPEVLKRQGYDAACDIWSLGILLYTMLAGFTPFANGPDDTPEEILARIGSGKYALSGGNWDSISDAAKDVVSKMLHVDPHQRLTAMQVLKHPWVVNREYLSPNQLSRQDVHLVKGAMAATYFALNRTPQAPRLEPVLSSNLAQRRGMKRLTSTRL
Source text: as §1, §2

Sequence of human full-length autophosphorylated recombinant HPK1 (Q92918 other isoform, or with tags, fused parts or gaps): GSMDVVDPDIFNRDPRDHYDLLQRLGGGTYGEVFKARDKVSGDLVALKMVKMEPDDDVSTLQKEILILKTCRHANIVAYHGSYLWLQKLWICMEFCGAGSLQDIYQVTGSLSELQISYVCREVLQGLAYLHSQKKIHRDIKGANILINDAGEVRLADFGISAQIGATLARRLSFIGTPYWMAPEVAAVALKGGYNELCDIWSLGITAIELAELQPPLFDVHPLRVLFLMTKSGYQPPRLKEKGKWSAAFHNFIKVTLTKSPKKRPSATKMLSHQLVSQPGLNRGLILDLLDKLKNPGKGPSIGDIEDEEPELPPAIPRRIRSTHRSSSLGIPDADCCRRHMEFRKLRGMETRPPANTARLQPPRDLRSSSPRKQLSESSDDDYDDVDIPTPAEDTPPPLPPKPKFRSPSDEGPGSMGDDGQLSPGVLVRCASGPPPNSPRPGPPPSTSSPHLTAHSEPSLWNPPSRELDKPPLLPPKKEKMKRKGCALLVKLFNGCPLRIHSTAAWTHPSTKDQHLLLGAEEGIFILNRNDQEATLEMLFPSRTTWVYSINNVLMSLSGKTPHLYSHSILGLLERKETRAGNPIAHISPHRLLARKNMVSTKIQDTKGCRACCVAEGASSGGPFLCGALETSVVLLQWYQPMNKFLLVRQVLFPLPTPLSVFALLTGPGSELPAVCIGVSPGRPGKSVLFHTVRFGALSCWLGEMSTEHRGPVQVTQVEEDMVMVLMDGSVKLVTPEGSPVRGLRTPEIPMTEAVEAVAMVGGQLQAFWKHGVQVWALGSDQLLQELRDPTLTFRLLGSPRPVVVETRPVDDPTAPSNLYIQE

Row | Compound | Ki [1] [nM] | IC50 [2] [nM] | IC50 [3] [nM] | PRKD2 IC50/HPK1 Ki [3] | IC50 [4] [nM] | RSK3 IC50/HPK1 Ki [4]
1 | CC[C@H]1CCc2nnc(-c3cccc(N4Cc5c(cc(N6CCC[C@H]6C)nc5[C@@H](C)N)C4=O)n3)n21 [Example 2, 4-[(1R)-1-aminoethyl]-2-{6-[(5S)-5-ethyl-6,7-dihydro-5H-pyrrolo[2,1-c][1,2,4]triazol-3-yl]pyridin-2-yl}-6-[(2R)-2-methylpyrrolidin-1-yl]-2,3-dihydro-1H-pyrrolo[3,4-c]pyridin-1-one] | < 0.05 | 30 | 116 | >2320 | 21.3 | >420
2 | CC[C@H]1CCc2nnc(-c3cccc(N4Cc5c(cc(N6CCC[C@H]6C)nc5[C@H](C)N)C4=O)n3)n21 [Example 3, 4-[(1S)-1-aminoethyl]-2-{6-[(5S)-5-ethyl-6,7-dihydro-5H-pyrrolo[2,1-c][1,2,4]triazol-3-yl]pyridin-2-yl}-6-[(2R)-2-methylpyrrolidin-1-yl]-2,3-dihydro-1H-pyrrolo[3,4-c]pyridin-1-one] | < 0.05 | 34 | 6.54 | >130 | 3.33 | >66
3 | CC[C@@H](N)c1nc(C2(C)CC2)cc2c1CN(c1cccc(-c3nnc4n3[C@@H](CO)CC4)n1)C2=O (single isomer, unassigned) [Example 36] | 0.074 | 110 |  |  |  | 
4 | C[C@@H]1CCc2nnc(-c3cccc(N4Cc5c(cc(N(C)C)nc5C(C)(C)N)C4=O)n3)n21 (single isomer, unassigned) [Example 23, 4-(2-aminopropan-2-yl)-6-(dimethyl-amino)-2-{6-[(5ξ)-5-methyl-6,7-dihydro-5H-pyrrolo[2,1-c][1,2,4]triazol-3-yl]pyridin-2-yl}-2,3-dihydro-1H-pyrrolo[3,4-c]pyridin-1-one] | 5 | 329 |  |  |  | 
5 | CC[C@H]1CCc2nnc(-c3cccc(N4Cc5c(cc(N(C)C(C)C)nc5[C@@H](C)N)C4=O)n3)n21 [Example 4, 4-[(1R)-1-aminoethyl]-2-{6-[(5S)-5-ethyl-6,7-dihydro-5H-pyrrolo[2,1-c][1,2,4]triazol-3-yl]pyridin-2-yl}-6-[methyl(propan-2-yl)amino]-2,3-dihydro-1H-pyrrolo[3,4-c]pyridin-1-one] | < 0.05 | 36 | 217 | >4304 | 25.8 | >520
6 | CC[C@@H](N)c1nc(N(C)C(C)C)cc2c1CN(c1cccc(-c3nnc4n3[C@@H](CO)CC4)n1)C2=O [Example 20, 4-[(1R)-1-aminopropyl]-2-{6-[(5R)-5-(hydroxy-methyl)-6,7-dihydro-5H-pyrrolo[2,1-c][1,2,4]triazol-3-yl]pyridin-2-yl}-6-[methyl(propan-2-yl)amino]-2,3-dihydro-1H-pyrrolo[3,4-c]pyridin-1-one] | < 0.05 | 23 |  |  |  | 
7 | CC(C)N(C)c1cc2c(c([C@@H](C)N)n1)CN(c1cccc(-c3nnc4n3[C@@H](CF)CC4)n1)C2=O [Example 29, 4-[(1R)-1-aminoethyl]-2-{6-[(5R)-5-(fluoromethyl)-6,7-dihydro-5H-pyrrolo[2,1-c][1,2,4]triazol-3-yl]pyridin-2-yl}-6-[methyl(propan-2-yl)amino]-2,3-dihydro-1H-pyrrolo[3,4-c]pyridin-1-one] | 0.2 | 72 |  |  |  | 
8 | CC[C@@H](N)c1nc(N2CCC[C@H]2C)cc2c1CN(c1cccc(-c3nnc4n3[C@@H](CF)CC4)n1)C2=O [Example 32, 4-[(1R)-1-aminopropyl]-2-{6-[(5R)-5-(fluoromethyl)-6,7-dihydro-5H-pyrrolo[2,1-c][1,2,4]triazol-3-yl]pyridin-2-yl}-6-[(2R)-2-methylpyrroli-din-1-yl]-2,3-dihydro-1H-pyrrolo[3,4-c]pyridin-1-one] | 0.06 | 46 |  |  |  | 
9 | CC[C@@H](N)c1nc(N2CCC[C@H]2C)cc2c1CN(c1cccc(-c3nnc4n3[C@@H](C)CC4)n1)C2=O [Example 1, 4-[(1R)-1-aminopropyl]-2-{6-[(5S)-5-methyl-6,7-dihydro-5H-pyrrolo[2,1-c][1,2,4]triazol-3-yl]pyridin-2-yl}-6-[(2R)-2-methylpyrrolidin-1-yl]-2,3-dihydro-1H-pyrrolo[3,4-c]pyridin-1-one] |  |  | 155 |  | 47 | 

Further lines, results first:

Row | Ki [1] [nM] | IC50 [2] [nM] | IC50 [3] [nM] | PRKD2 IC50/HPK1 Ki [3] | IC50 [4] [nM] | RSK3 IC50/HPK1 Ki [4] | Compound
10 | < 0.05 | 16 | 7.97 | >160 | 10.1 | >200 | CC[C@H]1CCc2nnc(-c3cccc(N4Cc5c(cc(N6CCC[C@H]6C)nc5CNC)C4=O)n3)n21 [Example 200, 2-{6-[(5S)-5-ethyl-6,7-dihydro-5H-pyrrolo[2,1-c][1,2,4]triazol-3-yl]pyridin-2-yl}-4-[(methylamino)methyl]-6-[(2R)-2-methylpyrrolidin-1-yl]-2,3-dihydro-1H-pyrrolo[3,4-c]pyridin-1-one]
11 |  | 94 | 1.93 | 14 | 6.26 | 23 | CCCn1cnnc1-c1cccc(N2Cc3c(cc(N(C)C)nc3CNC)C2=O)n1 [Example 300, 6-(dimethylamino)-4-[(methylamino)methyl]-2-[6-(4-propyl-4H-1,2,4-triazol-3-yl)pyridin-2-yl]-2,3-dihydro-1H-pyrrolo[3,4-c]pyridin-1-one]
12 | < 0.05 | 37 | 5.43 | >108 | 6.73 | >134 | CC[C@H]1CCc2nnc(-c3cccc(N4Cc5c(cc(N(C)C(C)C)nc5CNC)C4=O)n3)n21 [Example 201, 2-{6-[(5S)-5-ethyl-6,7-dihydro-5H-pyrrolo[2,1-c][1,2,4]triazol-3-yl]pyridin-2-yl}-4-[(methylamino)methyl]-6-[methyl(propan-2-yl)amino]-2,3-dihydro-1H-pyrrolo[3,4-c]pyridin-1-one]
13 | 0.06 | 25 | 6.54 | 108 | 40.1 | 667 | CNCc1nc(N2CCC[C@H]2C)cc2c1CN(c1cccc(-c3nnc4n3[C@@H](CF)CC4)n1)C2=O [Example 202, 2-{6-[(5R)-5-(fluoromethyl)-6,7-dihydro-5H-pyrrolo[2,1-c][1,2,4]triazol-3-yl]pyridin-2-yl}-4-[(methylamino)methyl]-6-[(2R)-2-methylpyrrolidin-1-yl]-2,3-dihydro-1H-pyrrolo[3,4-c]pyridin-1-one]
14 | 0.32 | 159 |  |  |  |  | CNCc1nc(N(C)C(C)C)cc2c1CN(c1cccc(-c3nnc4n3[C@@H](C)C[C@H]4C)n1)C2=O [Example 212, 2-{6-[(5S,7R)-5,7-dimethyl-6,7-dihydro-5H-pyrrolo[2,1-c] [1,2,4]triazol-3-yl]pyridin-2-yl}-4-[(methyl-amino)methyl]-6-[methyl (propan-2-yl)amino]-2,3-dihydro-1H-pyrrolo[3,4-c] pyridin-1-one]
15 | < 0.05 | 78 |  |  |  |  | CNCc1nc(N(C)C(C)C)cc2c1CN(c1cccc(-c3nnc4n3[C@@H](C)C[C@@H]4C)n1)C2=O [Example 211, 2-{6-[(5S,7S)-5,7-dimethyl-6,7-dihydro-5H-pyrrolo[2,1-c] [1,2,4]triazol-3-yl]pyridin-2-yl}-4-[(methyl-amino)methyl]-6-[methyl (propan-2-yl)amino]-2,3-dihydro-1H-pyrrolo[3,4-c] pyridin-1-one]
16 | 0.31 | 61 |  |  |  |  | CCn1cnnc1-c1cccc(N2Cc3c(cc(N4CCC[C@H]4C)nc3[C@H](C)NC)C2=O)n1 (single isomer, unassigned) [Example 109]
17 | 0.56 | 216 |  |  |  |  | CCn1cnnc1-c1cccc(N2Cc3c(cc(C4(C)CC4)nc3[C@@H](C)N)C2=O)n1 [Example 115, 4-[(1R)-1-aminoethyl]-2-[6-(4-ethyl-4H-1,2,4-triazol-3-yl)pyridin-2-yl]-6-(1-methylcyclo-propyl)-2,3-dihydro-1H-pyrrolo[3,4-c]pyridin-1-one]
18 | 0.4 | 77 |  |  |  |  | CCN(C)c1cc2c(c([C@H](C)N)n1)CN(c1cccc(-c3nncn3CC)n1)C2=O (single isomer, unassigned) [Example 130, 4-[(1ξ)-1-aminoethyl]-6-[ethyl(methyl)amino]-2-[6-(4-ethyl-4H-1,2,4-triazol-3-yl)pyridin-2-yl]-2,3-dihydro-1H-pyrrolo[3,4-c]pyridin-1-one]
19 | 0.37 | 143 |  |  |  |  | CCCn1c(C)nnc1-c1cccc(N2Cc3c(cc(N4CCC[C@H]4C)nc3[C@@H](C)N)C2=O)n1 (single isomer, unassigned) [Example 135]
20 | 1.02 | 94 |  |  |  |  | CCCn1cnnc1-c1cccc(N2Cc3c(cc(N(C)C)nc3C(C)(C)N)C2=O)n1 [Example 131, 4-(2-aminopropan-2-yl)-6-(dimethyl-amino)-2-[6-(4-propyl-4H-1,2,4-triazol-3-yl)pyridin-2-yl]-2,3-dihydro-1H-pyrrolo[3,4-c]pyridin-1-one]
